Measurements published in patent publication US20080009511A1, “Cancer treatment with compounds inhibiting PKC alpha” (priority 2004, published 2008).

How the values were obtained:
[1] = system: U251 human glioma cells; test: Cell viability assay (trypan blue dye exclusion), viable cells counted at day 6; type: cell-based; conditions: 10 micromoles; for Treated (cell number × 10^5): about 4×10^4 cells seeded, untreated 9.6 ± 0.5; for % inhibiton: growth vs untreated
Procedure: (§1) The following cancer cells were maintained in Dulbecco's modified Eagle medium (DMEM) supplemented with 10 percent bovine calf serum. Cells were seeded for 24 hours. Then they were treated with PKC inhibitors or left untreated. The cells were then collected periodically and evaluated using trypan blue dye exclusion to assess viability using the method described by C Y Chen, et al., in J. Biol. Chem. 273:16700-16709. Cultures containing about 4×10^4 cells were treated with 5 micromoles of Gö7874 (except that PC3 prostate cancer cells were treated with 10 micromoles) and the viable cells were counted at day 6. […] Cultures containing about 4×10^4 cells were treated with or without 10 micromoles of Gö6850 and the viable cells were counted at day 6. […] Cultures containing about 4×10^4 cells were treated with or without 10 micromoles of NGIC-I and the viable cells were counted at day 6. […] Cultures containing about 4×10^4 cells were treated with or without 10 micromoles of Ro31-7549 and the viable cells were counted at day 6. […] Cultures containing about 4×10^4 cells were treated with or without 10 micromoles of Ro31-8220 and the viable cells were counted at day 6. […] Cultures containing about 4×10^4 cells were treated with or without 10 micromoles of Ro31-8425 and the viable cells were counted at day 6. […] Cultures containing about 4×10^4 cells were treated with or without 10 micromoles of Ro31-0432 and the viable cells were counted at day 6.

[2] = system: H460 human lung cancer cells; test: as above; type: cell-based; conditions: 10 micromoles; for Treated (cell number × 10^5): about 4×10^4 cells seeded, untreated 2.4 ± 0.2; for % inhibiton: growth vs untreated
Procedure: as §1

[3] = system: Hela human cervical cancer cells; test: as above; type: cell-based; conditions: 10 micromoles; for Treated (cell number × 10^5): about 4×10^4 cells seeded, untreated 3.4 ± 0.4; for % inhibiton: growth vs untreated
Procedure: as §1

[4] = system: HepG2 human liver cancer cells; test: as above; type: cell-based; conditions: 10 micromoles; for Treated (cell number × 10^5): about 4×10^4 cells seeded, untreated 4.2 ± 0.4; for % inhibiton: growth vs untreated
Procedure: as §1

[5] = system: NBT-II human bladder cancer cells; test: as above; type: cell-based; conditions: 10 micromoles; for Treated (cell number × 10^5): about 4×10^4 cells seeded, untreated 2.9 ± 0.4; for % inhibiton: growth vs untreated
Procedure: as §1

[6] = system: PANC-1 human pancreatic carcinoma cells; test: as above; type: cell-based; conditions: 10 micromoles; for Treated (cell number × 10^5): about 4×10^4 cells seeded, untreated 2.1 ± 0.3; for % inhibiton: growth vs untreated
Procedure: as §1

[7] = system: A431 human epidermoid carcinoma cells; test: as above; type: cell-based; conditions: 10 micromoles; for Treated (cell number × 10^5): about 4×10^4 cells seeded, untreated 5.4 ± 0.4; for % inhibiton: growth vs untreated
Procedure: as §1

[8] = system: AGS human gastric cancer cells; test: as above; type: cell-based; conditions: 10 micromoles; for Treated (cell number × 10^5): about 4×10^4 cells seeded, untreated 2.4 ± 0.3; for % inhibiton: growth vs untreated
Procedure: as §1

[9] = system: HT29 human colon cancer cells; test: as above; type: cell-based; conditions: 10 micromoles; for Treated (cell number × 10^5): about 4×10^4 cells seeded, untreated 3.8 ± 0.4; for % inhibiton: growth vs untreated
Procedure: as §1

[10] = system: PC3 human prostate cancer cells; test: as above; type: cell-based; conditions: 10 micromoles; for Treated (cell number × 10^5): about 4×10^4 cells seeded, untreated 7.1 ± 0.3; for % inhibiton: growth vs untreated
Procedure: as §1

[11] = system: MDA-MB-468 human breast cancer cells; test: as above; type: cell-based; conditions: 10 micromoles; for % inhibiton: growth vs untreated; for Treated (cell number × 10^5): about 4×10^4 cells seeded, untreated 6.1 ± 0.4
Procedure: as §1

[12] = system: Jurkat cells (a human acute T-cell leukemia cell line); test: as above; type: cell-based; conditions: 10 micromoles; for Treated (cell number × 10^5): about 4×10^4 cells seeded, untreated 8.8 ± 0.4; for % inhibiton: growth vs untreated
Procedure: as §1

[13] = system: KB oral cancer cells; test: as above; type: cell-based, human; conditions: 10 micromoles; for Treated (cell number × 10^5): about 4×10^4 cells seeded, untreated 3.8 ± 0.4; for % inhibiton: growth vs untreated
Procedure: as §1

[14] = system: human cancer cells; test: Cell viability assay, summary over the panel of cancer cells; type: cell-based; conditions: 10 micromoles; day 6; cell lines not named as going to apoptosis
Procedure: The following cancer cells were maintained in Dulbecco's modified Eagle medium (DMEM) supplemented with 10 percent bovine calf serum. Cells were seeded for 24 hours. Then they were treated with PKC inhibitors or left untreated. The cells were then collected periodically and evaluated using trypan blue dye exclusion to assess viability using the method described by C Y Chen, et al., in J. Biol. Chem. 273:16700-16709. Cultures containing about 4×10^4 cells were treated with or without 10 micromoles of Gö6850 and the viable cells were counted at day 6. […] Cultures containing about 4×10^4 cells were treated with or without 10 micromoles of NGIC-I and the viable cells were counted at day 6. […] Cultures containing about 4×10^4 cells were treated with or without 10 micromoles of Ro31-7549 and the viable cells were counted at day 6. […] Cultures containing about 4×10^4 cells were treated with or without 10 micromoles of Ro31-8220 and the viable cells were counted at day 6. […] Cultures containing about 4×10^4 cells were treated with or without 10 micromoles of Ro31-8425 and the viable cells were counted at day 6. […] Cultures containing about 4×10^4 cells were treated with or without 10 micromoles of Ro31-0432 and the viable cells were counted at day 6.

CN(C)CC1CCn2c(c(C3=C(c4cn(C)c5ccccc45)C(=O)NC3=O)c3ccccc32)C1.Cl (stereo not drawn) [Ro31-0432] was tested, and the “Treated (cell number × 10^5)” value [1] was 9.2 × 10^5, the “% inhibiton” value [1] was 10% and the “Treated (cell number × 10^5)” value [2] was 1.3x ± × 10^5. The “% inhibiton” value [2] was 48%, the “Treated (cell number × 10^5)” value [3] was 1.3 × 10^5 and the “% inhibiton” value [3] was 60%. For the same compound, the “Treated (cell number × 10^5)” value [4] was 2.4 × 10^5, the “% inhibiton” value [4] was 43% and the “Treated (cell number × 10^5)” value [5] was 2.3 × 10^5. The “% inhibiton” value [5] was 19%, the “Treated (cell number × 10^5)” value [6] was 1.2 ± 0.1 × 10^5 and the “% inhibiton” value [6] was 31%. The “Treated (cell number × 10^5)” value [7] was 4.2 × 10^5, the “% inhibiton” value [7] was 21% and the “Treated (cell number × 10^5)” value [8] was 1.7 × 10^5. The “% inhibiton” value [8] was 30%, the “Treated (cell number × 10^5)” value [9] was 3.0 × 10^5 and the “% inhibiton” value [9] was 19%. The “Treated (cell number × 10^5)” value [10] was 6.0 × 10^5, the “% inhibiton” value [10] was 15% and the “% inhibiton” value [11] was 30%. For the same compound, the “Treated (cell number × 10^5)” value [12] was 1.4 × 10^5, the “% inhibiton” value [12] was 81% and the “Treated (cell number × 10^5)” value [13] was 2.1 × 10^5. The “% inhibiton” value [13] was 44% and the “inhibition of growth in contrast to untreated cells, range over the other treated cancer cells” value (from here on “inhibition … over the other treated cancer cells”) [14] was 10-60%.
With Cn1cc(C2=C(c3cn(CCCN)c4ccccc34)C(=O)NC2=O)c2ccccc21 [Ro31-7549, 2-[1-3(Aminopropyl)indol-3-yl]-3(1-methyl-1H-indol-3-yl)maleimide, Acetate] the “Treated (cell number × 10^5)” value [1] was 1.9 × 10^5, the “% inhibiton” value [1] was 80% and the “Treated (cell number × 10^5)” value [2] was 0.5 × 10^5. The “% inhibiton” value [2] was 81%, the “cells that went to apoptosis upon treatment” value (“cells that went” for short) [3] was “significant number” and the “Treated (cell number × 10^5)” value [3] was 6 × 10^5. For the same compound, the “% inhibiton” value [3] was “* (indicates the inhibitor causes significant cell death, and cell number is less than originally seeded cell number.)”, the “cells that went” value [4] was “all” and the “Treated (cell number × 10^5)” value [4] was 0 × 10^5. The “% inhibiton” value [4] was “* (indicates the inhibitor causes significant cell death, and cell number is less than originally seeded cell number.)”, the “Treated (cell number × 10^5)” value [5] was 0.6 ± 0.1 × 10^5 and the “% inhibiton” value [5] was 80%. For the same compound, the “Treated (cell number × 10^5)” value [6] was 1.2 × 10^5, the “% inhibiton” value [6] was 43% and the “Treated (cell number × 10^5)” value [7] was 2.8 × 10^5. For the same compound, the “% inhibiton” value [7] was 48%, the “Treated (cell number × 10^5)” value [8] was 1.7 × 10^5 and the “% inhibiton” value [8] was 30%. The “Treated (cell number × 10^5)” value [9] was 1.7 × 10^5, the “% inhibiton” value [9] was 63% and the “Treated (cell number × 10^5)” value [10] was 2.7 × 10^5. The “% inhibiton” value [10] was 62%, the “cells that went” value [11] was “significant number” and the “Treated (cell number × 10^5)” value [11] was 0.2 ± 0.05 × 10^5. The “% inhibiton” value [11] was “* (indicates the inhibitor causes significant cell death, and cell number is less than originally seeded cell number.)”, the “Treated (cell number × 10^5)” value [12] was 0.7 × 10^5 and the “% inhibiton” value [12] was 92%. The “cells that went” value [13] was “all”, the “Treated (cell number × 10^5)” value [13] was 0 × 10^5 and the “% inhibiton” value [13] was “* (indicates the inhibitor causes significant cell death, and cell number is less than originally seeded cell number.)”. The “inhibition … over the other treated cancer cells” value [14] was 43-92%.
Cn1cc(C2=C(c3cn(CCCSC(=N)N)c4ccccc34)C(=O)NC2=O)c2ccccc21 [Ro31-8220] was tested, and the “Treated (cell number × 10^5)” value [1] was 1.4 × 10^5, the “% inhibiton” value [1] was 85% and the “Treated (cell number × 10^5)” value [2] was 0.4 × 10^5. The “% inhibiton” value [2] was 85%, the “cells that went” value [3] was “significant number” and the “Treated (cell number × 10^5)” value [3] was 6.0 × 10^5. For the same compound, the “% inhibiton” value [3] was “* (indicates the inhibitor causes significant cell death, and cell number is less than originally seeded cell number.)”, the “Treated (cell number × 10^5)” value [4] was 0.4 × 10^5 and the “% inhibiton” value [4] was 90%. The “cells that went” value [5] was “all”, the “Treated (cell number × 10^5)” value [5] was 0 × 10^5 and the “% inhibiton” value [5] was “* (indicates the inhibitor causes significant cell death, and cell number is less than originally seeded cell number.)”. The “cells that went” value [6] was “all”, the “Treated (cell number × 10^5)” value [6] was 0 × 10^5 and the “% inhibiton” value [6] was “* (indicates the inhibitor causes significant cell death, and cell number is less than originally seeded cell number.)”. The “Treated (cell number × 10^5)” value [7] was 2.1 × 10^5, the “% inhibiton” value [7] was 60% and the “cells that went” value [8] was “all”. The “Treated (cell number × 10^5)” value [8] was 0 × 10^5, the “% inhibiton” value [8] was “* (indicates the inhibitor causes significant cell death, and cell number is less than originally seeded cell number.)” and the “Treated (cell number × 10^5)” value [9] was 0.6 × 10^5. For the same compound, the “% inhibiton” value [9] was 85%, the “Treated (cell number × 10^5)” value [10] was 2.7 × 10^5 and the “% inhibiton” value [10] was 62%. For the same compound, the “cells that went” value [11] was “significant number”, the “Treated (cell number × 10^5)” value [11] was 0.2 ± 0.05 × 10^5 and the “% inhibiton” value [11] was “* (indicates the inhibitor causes significant cell death, and cell number is less than originally seeded cell number.)”. The “Treated (cell number × 10^5)” value [12] was 0.5 × 10^5, the “% inhibiton” value [12] was 94% and the “cells that went” value [13] was “all”. The “Treated (cell number × 10^5)” value [13] was 0 × 10^5, the “% inhibiton” value [13] was “* (indicates the inhibitor causes significant cell death, and cell number is less than originally seeded cell number.)” and the “inhibition … over the other treated cancer cells” value [14] was 60-94%.
